Reference: the supplement of paper PMC10307832

Experiments:
Test in all cases: relative viability (nuclei count vs DMSO), 5 days (fraction); higher = more cells survive
LCLC-97TM1 = tested on: LCLC-97TM1
Procedure, shortened: (§1)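 Lung cancer cell lines in 1536-well plates got either a single drug or a fixed anchor-drug dose together with five library-drug doses (not always all listed) in √10 steps, by pin tool, on the day after seeding. Nuclei were counted after 5 days, and relative viability is the treated-to-vehicle ratio of nuclei counts. Values are medians of duplicate plates.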

NCI-H661 = tested on: NCI-H661
Procedure, shortened: as §1

NCI-H1651 = tested on: NCI-H1651
Procedure, shortened: as §1

NCI-H1650 = tested on: NCI-H1650
Procedure, shortened: as §1

NCI-H650 = tested on: NCI-H650
Procedure, shortened: as §1

ABC-1 = tested on: ABC-1
Procedure, shortened: as §1

NCI-H727 = tested on: NCI-H727
Procedure, shortened: as §1

NCI-H2087 = tested on: NCI-H2087
Procedure, shortened: as §1

PC-3 [JPC-3] = tested on: PC-3 [JPC-3]
Procedure, shortened: as §1

NCI-H596 = tested on: NCI-H596
Procedure, shortened: as §1

NCI-H1792 = tested on: NCI-H1792
Procedure, shortened: as §1

LC-2-ad = tested on: LC-2-ad
Procedure, shortened: as §1

NCI-H441 = tested on: NCI-H441
Procedure, shortened: as §1

CAL-12T = tested on: CAL-12T
Procedure, shortened: as §1

NCI-H1944 = tested on: NCI-H1944
Procedure, shortened: as §1

NCI-H520 = tested on: NCI-H520
Procedure, shortened: as §1

A-427 = tested on: A-427
Procedure, shortened: as §1

NCI-H1915 = tested on: NCI-H1915
Procedure, shortened: as §1

H3255 = tested on: H3255
Procedure, shortened: as §1

BEN = tested on: BEN
Procedure, shortened: as §1

NCI-H460 = tested on: NCI-H460
Procedure, shortened: as §1

NCI-H2023 = tested on: NCI-H2023
Procedure, shortened: as §1

201T = tested on: 201T
Procedure, shortened: as §1

In the case of `O=C(O)c1ccc(-c2c[nH]c3ncc(-c4ccccc4)cc23)cc1C1CCCC1` + Cc1nc(Nc2ncc(C(=O)Nc3c(C)cccc3Cl)s2)cc(N2CCN(CCO)CC2)n1 [Dasatinib] (partner 0.075 µM), the relative viability (LCLC-97TM1; first compound 0.04 µM) is reported as 0.836, the relative viability (LCLC-97TM1; first compound 0.1265 µM) is reported as 0.893 and the relative viability (LCLC-97TM1; first compound 0.4 µM) is reported as 0.881. For the same compound, the relative viability (LCLC-97TM1; first compound 1.265 µM) was 0.686, the relative viability (NCI-H661; first compound 0.04 µM) was 0.852 and the relative viability (NCI-H661; first compound 0.1265 µM) was 1.1. It also gave a relative viability (NCI-H661; first compound 0.4 µM) of 0.792, a relative viability (NCI-H661; first compound 1.265 µM) of 0.797 and a relative viability (NCI-H1651; first compound 0.04 µM) of 0.333. The relative viability (NCI-H1651; first compound 0.1265 µM) was 0.5, the relative viability (NCI-H1651; first compound 0.4 µM) was 0.384 and the relative viability (NCI-H1651; first compound 1.265 µM) was 0.3. For the same compound, the relative viability (NCI-H1650; first compound 0.04 µM) was 0.312, the relative viability (NCI-H1650; first compound 0.1265 µM) was 0.357 and the relative viability (NCI-H1650; first compound 0.4 µM) was 0.37. It also gave a relative viability (NCI-H1650; first compound 1.265 µM) of 0.308, a relative viability (NCI-H650; first compound 0.04 µM) of 0.43 and a relative viability (NCI-H650; first compound 0.1265 µM) of 0.502. It also gave a relative viability (NCI-H650; first compound 0.4 µM) of 0.405, a relative viability (NCI-H650; first compound 1.265 µM) of 0.353 and a relative viability (ABC-1; first compound 0.04 µM) of 0.588. The relative viability (ABC-1; first compound 0.1265 µM) was 0.629, the relative viability (ABC-1; first compound 0.4 µM) was 0.551 and the relative viability (ABC-1; first compound 1.265 µM) was 0.604. The relative viability (NCI-H727; first compound 0.04 µM) was 0.298, the relative viability (NCI-H727; first compound 0.1265 µM) was 0.398 and the relative viability (NCI-H727; first compound 0.4 µM) was 0.442. It also gave a relative viability (NCI-H727; first compound 1.265 µM) of 0.364, a relative viability (NCI-H2087; first compound 0.04 µM) of 0.752 and a relative viability (NCI-H2087; first compound 0.1265 µM) of 0.778. The relative viability (NCI-H2087; first compound 0.4 µM) was 0.896, the relative viability (NCI-H2087; first compound 1.265 µM) was 0.661 and the relative viability (PC-3 [JPC-3]; first compound 0.04 µM) was 0.981. The relative viability (PC-3 [JPC-3]; first compound 0.1265 µM) was 1.09, the relative viability (PC-3 [JPC-3]; first compound 0.4 µM) was 1.07 and the relative viability (PC-3 [JPC-3]; first compound 1.265 µM) was 0.973. It also gave a relative viability (NCI-H596; first compound 0.04 µM) of 0.596, a relative viability (NCI-H596; first compound 0.1265 µM) of 0.572 and a relative viability (NCI-H596; first compound 0.4 µM) of 0.601. It also gave a relative viability (NCI-H596; first compound 1.265 µM) of 0.639, a relative viability (NCI-H1792; first compound 0.1265 µM) of 0.8 and a relative viability (NCI-H1792; first compound 0.4 µM) of 0.856. For the same compound, the relative viability (NCI-H1792; first compound 1.265 µM) was 0.847, the relative viability (LC-2-ad; first compound 0.04 µM) was 0.505 and the relative viability (LC-2-ad; first compound 0.1265 µM) was 0.813. It also gave a relative viability (LC-2-ad; first compound 0.4 µM) of 0.489, a relative viability (LC-2-ad; first compound 1.265 µM) of 0.463 and a relative viability (NCI-H441; first compound 0.04 µM) of 0.737. For the same compound, the relative viability (NCI-H441; first compound 0.1265 µM) was 0.521, the relative viability (NCI-H441; first compound 0.4 µM) was 0.575 and the relative viability (NCI-H441; first compound 1.265 µM) was 0.473. The relative viability (CAL-12T; first compound 0.04 µM) was 0.484, the relative viability (CAL-12T; first compound 0.1265 µM) was 0.602 and the relative viability (CAL-12T; first compound 0.4 µM) was 0.481. For the same compound, the relative viability (CAL-12T; first compound 1.265 µM) was 0.323, the relative viability (NCI-H1944; first compound 0.04 µM) was 0.227 and the relative viability (NCI-H1944; first compound 0.1265 µM) was 0.254. It also gave a relative viability (NCI-H1944; first compound 0.4 µM) of 0.216, a relative viability (NCI-H1944; first compound 1.265 µM) of 0.193 and a relative viability (NCI-H520; first compound 0.04 µM) of 0.199. It also gave a relative viability (NCI-H520; first compound 0.1265 µM) of 0.203, a relative viability (NCI-H520; first compound 0.4 µM) of 0.253 and a relative viability (NCI-H520; first compound 1.265 µM) of 0.222. The relative viability (A-427; first compound 0.04 µM) was 0.672, the relative viability (A-427; first compound 0.1265 µM) was 0.749 and the relative viability (A-427; first compound 0.4 µM) was 0.64. It also gave a relative viability (A-427; first compound 1.265 µM) of 0.595, a relative viability (NCI-H1915; first compound 0.04 µM) of 0.297 and a relative viability (NCI-H1915; first compound 0.1265 µM) of 0.331. The relative viability (NCI-H1915; first compound 0.4 µM) was 0.277, the relative viability (NCI-H1915; first compound 1.265 µM) was 0.271 and the relative viability (H3255; first compound 0.04 µM) was 0.378. For the same compound, the relative viability (H3255; first compound 0.1265 µM) was 0.6, the relative viability (H3255; first compound 0.4 µM) was 0.348 and the relative viability (H3255; first compound 1.265 µM) was 0.473. It also gave a relative viability (BEN; first compound 0.04 µM) of 0.291, a relative viability (BEN; first compound 0.1265 µM) of 0.374 and a relative viability (BEN; first compound 0.4 µM) of 0.358. For the same compound, the relative viability (BEN; first compound 1.265 µM) was 0.291, the relative viability (NCI-H460; first compound 0.04 µM) was 0.566 and the relative viability (NCI-H460; first compound 0.1265 µM) was 0.676. The relative viability (NCI-H460; first compound 0.4 µM) was 0.472, the relative viability (NCI-H460; first compound 1.265 µM) was 0.428 and the relative viability (NCI-H2023; first compound 0.04 µM) was 0.575. It also gave a relative viability (NCI-H2023; first compound 0.1265 µM) of 0.738, a relative viability (NCI-H2023; first compound 0.4 µM) of 0.603 and a relative viability (NCI-H2023; first compound 1.265 µM) of 0.515. For the same compound, the relative viability (201T; first compound 0.04 µM) was 0.58, the relative viability (201T; first compound 0.1265 µM) was 0.599 and the relative viability (201T; first compound 0.4 µM) was 0.523. For the same compound, the relative viability (201T; first compound 1.265 µM) was 0.534.
